Measured values taken from patent publication US11083724B2, “Rimegepant for CGRP related disorders” (Biohaven Pharmaceutical Holding Company Ltd., priority 2018, dated 2021).

Tests used:
[1] = system: subjects with Acute Migraines; test: Study 303 (BHV3000-303, NCT03461757): Phase 3 double-blind placebo-controlled trial, rimegepant 75 mg ODT, acute treatment of migraine; assay type: in vivo, human
Method: Clinical Trial—BHV3000-303: Phase 3: Double-Blind, Randomized, Placebo-Controlled, Safety and Efficacy Trial of BHV-3000 (Rimegepant) Orally Discintegrating Tablet (ODT) for the Acute Treatment of Migraine (ClinicalTrials.gov Identifier: NCT03461757) A phase 3 clinical study was conducted with 1812 participants, as follows. The purpose of this study is to compare the efficacy of BHV-3000 (rimegepant ODT) versus placebo in subjects with Acute Migraines. Study Design • Study Type: Interventional (Clinical Trial) • Actual Enrollment: 1812 participants • Allocation: Randomized • Intervention Model: Parallel Assignment • Masking: Triple (Participant, Care Provider, Investigator) • Primary Purpose: Treatment • Official Title: BHV3000-303: Phase 3, Double-Blind, Randomized, Placebo Controlled, Safety and Efficacy Trial of BHV-3000 (Rimegepant) Orally Disintegrating Tablet (ODT) for the Acute Treatment of Migraine • Actual Study Start Date: Feb. 27, 2018 • Actual Primary Completion Date: Oct. 8, 2018 • Actual Study Completion Date: Oct. 15, 2018 Arms and Interventions Outcome Measures Primary Outcome Measures: 1. Pain freedom of rimegepant compared with placebo in the acute treatment of migraine will be measured using the number of evaluable subjects that report no pain at 2 hours post-dose. [Time Frame: Two hours post dose] Pain will be measured on a 4 point Likert scale (0=none, 1=mild, 2=moderate, 3=severe) 2. Freedom from the most bothersome symptom (MBS) of rimegepant compared with placebo will be measured using the number of evaluable subjects that report the absence of their MBS at 2 hours post-dose. [Time Frame: Two hours post dose] The MBS (nausea, phonophobia or photophobia) will measured using a binary scale (0=absent, 1=present). Secondary Outcome Measures: 1. To measure rimegepant compared to placebo on Pain Relief, at 2 hours post-dose, that report a pain level of moderate or severe at baseline and then report a pain level of none or mild. [Time Frame: 2 hours post-dose] Pain Relief as measured by a 4 point numeric rating scale (None, Mild, Moderate, Severe) 2. Functional disability scale [Time Frame: 2 hour post-dose] Subjects self-report “normal” on the functional disability scale 3. […] [Time Frame: 2 hours-24 hours post-dose] Sustained Pain Relief as measured by a 4 point numeric rating scale (None, Mild, Moderate, Severe) 4. […] [Time Frame: 2 to 24 hours post dose] Most bothersome symptom 5. To measure rimegepant compared to placebo on the probability of requiring rescue medication will be assessed using the number of subjects that take rescue medication within […] administration of study medication (BHV3000 or placebo). [Time Frame: up to 24 hours post-dose] Requiring Rescue Medication 6. Sustained ability to function at a normal level as measured by the Functional disability scale [Time Frame: 2 to 24 hours post dose] Subjects self-report “normal” on the functional disability scale 7. […] [Time Frame: 2 hours-48 hours post-dose] Sustained Pain Relief as measured by a 4 point numeric rating scale (None, Mild, Moderate, Severe) 8. Rimegepant compared to placebo on pain freedom from most bothersome symptom from 2-48 hours post dose. [Time Frame: 2 to 48 hours post dose] Most bothersome symptom 9. Sustained ability to function at a normal level as measured by the Functional disability scale [Time Frame: 2 to 48 hours post dose] Subjects self-report “normal” on the functional disability scale 10. Rimegepant compared to placebo by tabulating the number of subjects that report the absence of photophobia at 2 hours post-dose in the subset of subjects that reported the presence of photophobia at headache baseline [Time Frame: 2 hours post-dose] Freedom from Photophobia 11. Functional disability scale [Time Frame: 90 minutes post dose] Subjects self-report “normal” on the functional disability scale 12. […] [Time Frame: 90 minutes post dose] Pain Relief as measured by a 4 point numeric rating scale (None, Mild, Moderate, Severe) 13. […]

[2] = system: subjects with Acute Migraines; test: Pooled liver function test profile, Study 301 and Study 302; assay type: in vivo, human
Method: (§1) In a double-blind, randomized, placebo-controlled, multicenter study (Study 301, NCT03235479) adults≥18 years of age with at least a 1-year history of ICHD 3-beta migraine were eligible to participate. Following a 3- to 28-day screening period, subjects were randomized to receive rimegepant 75 mg or matching placebo and instructed to treat a single migraine attack with 1 dose of the blinded study drug (rimegepant or placebo) when headache pain reached moderate or severe intensity. The coprimary endpoints were pain freedom at 2 hours postdose and freedom from the most bothersome symptom (MBS) at 2 hours postdose. Safety assessments included adverse events (AEs), ECGs, vital signs, physical measurements, and routine laboratory tests, including assessment of liver function. Unless stated otherwise, values presented are mean±SD.
as §1, with “302, NCT03237845)” for “301, NCT03235479)”

[3] = Study 303, n = 669, exploratory
[4] = Study 303, single 75 mg ODT, N = 669
[5] = pooled Study 301 and 302, n = 1089

N[C@@H]1c2cccnc2[C@H](OC(=O)N2CCC(n3c(=O)[nH]c4ncccc43)CC2)CC[C@H]1c1cccc(F)c1F [Rimegepant, [(5S,6S,9R)-5-amino-6-(2,3-difluorophenyl)-6,7,8,9-tetrahydro-5H-cyclohepta[b]pyridin-9-yl] 4-(2-oxo-3H-imidazo[4,5-b]pyridin-1-yl)piperidine-1-carboxylate]
Freedom from MBS at 2 hours, Difference (rimegepant minus placebo) ([1]; Study 303): 8.3%
Pain Freedom at 2 hours, Difference (rimegepant minus placebo) ([1]; Study 303): 10.3%
incidence of any single adverse event (AE) in the rimegepant group ([1]; Study 303): ≤ 1.6%
patients with LFTs >3×ULN ([1]; Study 303): one
Sustained Pain Relief 3 to 48 hrs ([1]; Study 303, n = 669): 49.9%
Sustained Pain Relief 3 to 24 hrs [1, 3]: 56.4%
Sustained Pain Relief 4 to 24 hrs [1, 3]: 61.7%
Sustained Pain Relief 4 to 48 hrs [1, 3]: 54.7%
Pain Relief @ 2 hours ([1]; Study 303, secondary 1): 59.3%
Functional Disability at 2 hours ([1]; Study 303, secondary 2, self-report normal): 38.1%
SP Relief (Sustained Pain Relief) 2 to 24 hours ([1]; Study 303, secondary 3): 47.8%
MBS 2 to 24 ([1]; Study 303, secondary 4, sustained freedom from MBS): 27.1%
Prob of Rescue Meds in 24 hours ([1]; Study 303, secondary 5): 14.2%
Functional Disability 2 to 24 ([1]; Study 303, secondary 6): 29.6%
SP Relief (Sustained Pain Relief) 2 to 48 hours ([1]; Study 303, secondary 7): 42.2%
MBS 2 to 48 ([1]; Study 303, secondary 8): 23.2%
Functional Disability 2 to 48 ([1]; Study 303, secondary 9): 26.0%
Photophobia @ 2 hours ([1]; Study 303, secondary 10, freedom from photophobia): 33.4%
Functional Disabilty @ 90 minutes ([1]; Study 303, secondary 11): 30.2%
Pain Relief @ 90 minutes ([1]; Study 303, secondary 12): 49.6%
SP Freedom 2 to 24 hours ([1]; Study 303, secondary 13): 15.7%
MBS Freedom at 90 minutes ([1]; Study 303, secondary 14): 27.4%
Pain Freedom @ 90 minutes ([1]; Study 303, secondary 15): 15.1%
Phonophobia @ 2hours ([1]; Study 303, secondary 16, freedom from phonophobia): 41.7%
SP Freedom 2 to 48 hours ([1]; Study 303, secondary 17): 13.5%
Pain Relief at 60 minutes ([1]; Study 303, secondary 18): 36.8%
Functional Disability at 60 minutes ([1]; Study 303, secondary 19): 22.3%
Nausea @ 2 hours ([1]; Study 303, secondary 20, freedom from nausea): 51.0%
Pain Relpase 2 to 48 ([1]; Study 303, secondary 21): 36.6%
Freedom from MBS at 2 hours [1, 4]: 35.1%
Pain Freedom at 2 hours [1, 4]: 21.2%
clinical benefit through 48 hours on pain relief, pain freedom, most bothersome symptom, functional disability ([1]; Study 303, single dose, versus placebo): Lasting clinical benefit
Pooled Liver Function Test profile versus placebo ([2]; Study 301 and Study 302): Rimegepant was Similar to Placebo in Both Studies
bilirubin elevations > 2 × ULN ([2]; across both Studies 301 and 302): *No bilirubin elevations > 2 × ULN across both Studies 301 and 302
ALT >3 × ULN, number of subjects [2, 5]: 1
ALT >3 × ULN, percent of subjects [2, 5]: 0.1%
ALT >5 × ULN, number of subjects [2, 5]: 0
ALT >10 × ULN, number of subjects [2, 5]: 0
ALT >20 × ULN, number of subjects [2, 5]: 0
ALT >ULN, number of subjects [2, 5]: 22
ALT >ULN, percent of subjects [2, 5]: 2.0%
AST >3 × ULN, number of subjects [2, 5]: 1
AST >3 × ULN, percent of subjects [2, 5]: 0.1%
AST >5 × ULN, number of subjects [2, 5]: 0
AST >10 × ULN, number of subjects [2, 5]: 0
AST >20 × ULN, number of subjects [2, 5]: 0
AST >ULN, number of subjects [2, 5]: 12
AST >ULN, percent of subjects [2, 5]: 1.1%
